These results are taken from article PMC11597202, “Novel Thiazole-Fused [4,5-g] or [5,4-g]Quinazolin-8-ones and Their Quinazoline Analogues: Synthesis and Biological Evaluation” (Pharmaceuticals, 2024).

As a reminder, the IC50 is the concentration needed to halve the response being measured.

Molecules are shown by their SMILES.

Data set [1] can be described thus: In vitro cytotoxic assay, HCT-116. It counts as cell-based. Particulars: human, HCT-116 cells (colon cancer cell line). As for the experimental part: Skin normal fibroblastic cells were purchased from Lonza (Basel, Switzerland). […] All culture media were supplemented by 10% of FBS, 1% of penicillin–streptomycin and 2 mM glutamine.
Chemicals were solubilized in DMSO at a concentration of 10 mM (stock solution) and diluted in culture medium to the desired final concentrations. […] Cells were plated in 96-well plates (4000 cells/well). Twenty-four hours after seeding, the cells were exposed to chemicals. […] Image acquisition and analysis were performed using a Cellomics ArrayScan VTI/HCS Reader (ThermoScientific, Les Ulis, France). The survival percentages were calculated as the percentage of cell number after compound treatment over cell number after DMSO treatment. The relative IC50 values were calculated using the curve fitting XLfit 5.5.0.5 (idbs) integrated in Microsoft Excel as an add-on.
4.3.1. Cell culture. Skin normal fibroblastic cells are purchased from Lonza (Basel, Switzerland). Huh7- […]
from ATCC (American Type Culture Collection). […]
supplemented by 10% of FBS, 1% of penicillin-streptomycin and 2 mM glutamine.
4.3.2. Cytotoxic assay. Chemicals were solubilized in DMSO at a concentration of 10 mM (stock solution) and diluted in culture medium to the desired final concentrations. The dose effect cytotoxic assays (IC50 determination) were performed by increasing the concentrations of each chemical (final well […]
Cells were plated in 96-well plates
(4000 cells/well). Twenty-four hours after seeding, cells were exposed to chemicals. After 48h of treatment, cells were washed in PBS and fixed in cooled 90% ethanol/5% acetic acid for 20 min and the […]
Image acquisition and analysis were performed using a Cellomics ArrayScan VTI/HCS Reader (ThermoScientific). The survival percentages were calculated as the percentage of cell number after compound treatment over cell number after DMSO treatment. The relative IC50 were calculated using the curve fitting XLfit 5.5.0.5 (idbs) integrated in Microsoft Excel as an add-on. The 4 Parameter Logistic Model or Sigmoidal Dose-Response Model describing the sigmoid-shaped response pattern was used (fit = (A+[(B-A)/(1+[(C/x)^D])]) where fit is the response and X is the tested concentration of the compound. The lower asymptote is A (also referred to as the bottom of the curve or lower plateau or the min) and the upper asymptote is B (also referred to as the top of the curve or upper plateau or the max). The slope of the linear part of the curve is described by the factor D. The parameter C is the concentration corresponding to the response midway between A and B. C is called “relative IC50” because it refers to the maximum response obtained by a […]
The results are represented as the mean ± standard error (SE) calculated from at least three independent experiments.

Data set [2] deals with T1, Pim-1 (Homo sapiens, UniProt P11309).
T1 construct: host or cells: bacteria
T1 sequence (P11309 whole entry): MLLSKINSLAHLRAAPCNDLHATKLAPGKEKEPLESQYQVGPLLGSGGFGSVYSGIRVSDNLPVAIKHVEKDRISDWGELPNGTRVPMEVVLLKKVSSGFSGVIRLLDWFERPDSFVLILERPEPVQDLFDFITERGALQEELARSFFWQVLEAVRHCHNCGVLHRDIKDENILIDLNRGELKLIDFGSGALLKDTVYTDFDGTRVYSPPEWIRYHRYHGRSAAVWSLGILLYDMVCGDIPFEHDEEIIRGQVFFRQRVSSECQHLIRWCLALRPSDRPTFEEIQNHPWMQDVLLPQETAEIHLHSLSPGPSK
Kind of data set: ADP-Glo kinase inhibition assay, Pim-1. It counts as biochemical. The settings on record: percentage of maximum activity of the DMSO control, mean n = 2, 10 µM ATP, read-out: Residual activity Pim-1; for remaining activity at 1 µM: 1 μM compound; for remaining activity at 10 µM: 10 μM compound. The procedure: Kinase enzymatic activities were assayed in 384-well plates using the ADP-Glo^TM assay kit (Promega, Madison, WI, USA) according to the recommendations of the manufacturer. This luminescent ADP detection assay was described by Zegzouti and co-workers and provides a homogeneous and high-throughput screening method to measure kinase activity by quantifying the amount of ADP produced during a kinase reaction. Briefly, the reactions were carried out in a final volume of 6 µL for 30 min at 30 °C in an appropriate kinase buffer (10 mM MgCl2, 1 mM EGTA, 1 mM DTT, 25 mM Tris-HCl pH 7.5, 50 µg/mL heparin), with peptide or protein as substrate in the presence of 10 µM ATP. Peptide substrates were obtained from ProteoGenix (Schiltigheim, France) or Sigma for Histone H1, Poly (L-glutamic acid–L-tyrosine) sodium salt, Casein and MBP. After that, 6 µL of ADP-Glo^TM Kinase Reagent was added to stop the kinase reaction. After an incubation time of 50 min at room temperature (rt), 12 µL of Kinase Detection Reagent was added for one hour at rt. The transmitted signal was measured using the Envision (PerkinElmer, Waltham, MA, USA) microplate luminometer and expressed as Relative Light Units (RLUs). Kinase activities are expressed as percentages of remaining kinase activities detected after treatment with 1 or 10 µM of the tested compounds. The maximum kinase activity was measured in the absence of inhibitor but with an equivalent dose of DMSO (solvent of the tested compounds).
3. Kinase inhibition assays
Kinase enzymatic activities were assayed in 384-well plates using the ADP-GloTM assay kit (Promega, Madison, WI) according to the recommendations of the manufacturer. This luminescent ADP detection assay was described by Zegzouti and co-workers and provides a homogeneous and high-throughput screening method to measure kinase activity by quantifying the amount of ADP produced during a kinase reaction. Briefly, the reactions were carried out in a final volume of 6 µl for 30 min at 30°C in appropriate kinase buffer (10 mM MgCl2, 1 mM EGTA, 1 mM DTT, 25 mM Tris-HCl pH 7.5, 50 µg/mL heparin), with peptide or protein as substrate in the presence of 10 µM ATP. Peptide substrates were obtained from ProteoGenix (Schiltigheim, France) or Sigma for Histone H1, Poly (L-glutamic acid – L-tyrosine) sodium salt, Casein and MBP. After that, 6 µL of ADP-GloTM Kinase Reagent was added to stop the kinase reaction. After an incubation time of 50 min at room temperature (rt), 12 µL of Kinase Detection Reagent was added for 1 h at rt. The transmitted signal was measured using the Envision (PerkinElmer, Waltham, MA) microplate luminometer and expressed in Relative Light Unit (RLU). Kinase activities are expressed in percentages of remaining kinase activities detected after treatment with 1 or 10 µM of the tested compounds. The maximal kinase activity is measured in the absence of inhibitor but with an equivalent dose of DMSO (solvent of the tested compounds).
Table. Human protein kinases tested in the panel: CDK9, HASPIN, PIM1, GSK3b, CK1ε, JAK3, CLK1 […]
Protein Kinase Enzyme Description Substrate1
(Family) (Working concentration)
CDK9/CyclinT Human, recombinant, expressed by Peptide:
(CMGC) baculovirus in Sf9 insect cells […]
CLK1 Human, recombinant, expressed by Peptide: […]
(CMGC) baculovirus in Sf9 insect cells (57.3µM)
DYRK1A Human, recombinant, expressed by Peptide: […]
(CMGC) baculovirus in Sf9 insect cells (10.7µM)
PIM1 Human proto-oncogene, recombinant, Peptide: […]
(CAMK) expressed in bacteria (630 µM)
GSK3 Human, recombinant, expressed by Peptide:
(CMGC) baculovirus in Sf9 insect cells […]pEDEEE 3
HASPIN Human, kinase domain, amino acids 470 to Histone H3 peptide (1-21):
(Other) 798, recombinant, expressed in bacteria […] (8µM)
CK1ε Human, recombinant, expressed by Peptide: […]pAYSITA 2
(CK1) baculovirus in Sf9 insect cells (170µM)
JAK3 Human, recombinant, expressed by Peptide: […]
(TK) baculovirus in Sf9 insect cells (94µM) […]
Background: ADP-Glo turns the ADP formed in a reaction into a luminescent signal.

As to `COC(=N)c1nc2cc3c(=O)n(Cc4ccccc4)cnc3cc2s1` [Compound 6a, Methyl 7-benzyl-8-oxo-7,8-dihydrothiazolo[4,5-g]quinazoline-2-carbimidate], the IC50 at 48 h in data set [1] came out at 20 µM. In addition, in data set [2], the remaining activity at 1 µM was 80% and the remaining activity at 10 µM was 133%.
For `COC(=N)c1nc2cc3ncnc(Nc4ccc(OC)cc4F)c3cc2s1` [Compound 15b, Methyl 8-[(2-fluoro-4-methoxyphenyl)amino]thiazolo[5,4-g]quinazoline-2-carbimidate], in data set [2], the remaining activity at 1 µM is 74% and the remaining activity at 10 µM was 105%.
For the compound `COC(=N)c1nc2c(ccc3c(=O)n(Cc4ccccc4)cnc32)s1` [Compound 6c, Methyl 7-benzyl-6-oxo-6,7-dihydrothiazolo[5,4-h]quinazoline-2-carbimidate], the IC50 at 48 h in data set [1] came to 3 µM. For the same compound, in data set [2], the remaining activity at 1 µM came out at 74% and the remaining activity at 10 µM was found to be 86%.
Regarding `COC(=N)c1nc2cc3ncn(Cc4ccccc4)c(=O)c3cc2s1` [Compound 6b, Methyl 7-benzyl-8-oxo-7,8-dihydrothiazolo[5,4-g]quinazoline-2-carbimidate], in data set [1], half-maximal inhibition (IC50 at 48 h) was put at 1 µM. For the same compound, in data set [2], the remaining activity at 1 µM was 90% and the remaining activity at 10 µM came to 78%.
For `COC(=N)c1nc2cc3c(Nc4ccc(OC)cc4F)ncnc3cc2s1` [Compound 15a, Methyl 8-[(2-fluoro-4-methoxyphenyl)amino]thiazolo[4,5-g]quinazoline-2-carbimidate], in that order: 8 µM, 71% and 113%.
`COC(=N)c1nc2ccc3c(=O)n(Cc4ccccc4)cnc3c2s1` [Compound 6d, Methyl 7-benzyl-6-oxo-6,7-dihydrothiazolo[4,5-h]quinazoline-2-carbimidate] had an IC50 at 48 h in data set [1] of 2 µM. For the same compound, in data set [2], the remaining activity at 1 µM is 92% and the remaining activity at 10 µM was 94%.
`COC(=N)c1nc2ccc3ncnc(Nc4ccc(OC)cc4F)c3c2s1` [Compound II, methyl 9-[(2-fluoro-4-methoxyphenyl)amino]thiazolo[5,4-f]quinazoline-2-carbimidate, reference compound] yielded a concentration for half-maximal inhibition (IC50) at 48 h in data set [1] of 4 µM. In data set [2], the remaining activity at 1 µM came to 52% and the remaining activity at 10 µM amounted to 32%.
For `COC(=N)c1nc2ccc3ncn(Cc4ccccc4)c(=O)c3c2s1` [Compound I, methyl 8-benzyl-9-oxo-8,9-dihydrothiazolo[5,4-f]quinazoline-2-carbimidate, reference compound], in that order: 18 µM, 79% and 77%.
